Results: patent US9475817B2 (BRISTOL-MYERS SQUIBB COMPANY, priority 2012, dated 2016)

Legend:
CK1δ = CK1δ (Homo sapiens (Human), UniProt P48730); assay: CK1δ kinase assay (Caliper LabChip, fluoresceinated peptide substrate); assay type: biochemical; settings: 200 pM CK1δ, 50 μM ATP, 1.5 μM peptide substrate, 22 hours room temperature
Description: (§1) CK1ε and CK1δ Kinase Assays
(§2) The kinase assay was performed in V-bottom 384-well plates. […] The reaction was incubated at room temperature for 22 hours and terminated by adding 45 μl of 35 mM EDTA to each sample. […] Compounds were dissolved at 10 mM in dimethylsulfoxide (DMSO) and evaluated at eleven concentrations. IC50 values were derived by non-linear regression analysis.

CK1ε = CK1ε (Homo sapiens (Human), UniProt P49674); assay: CK1ε kinase assay (Caliper LabChip, fluoresceinated peptide substrate); assay type: biochemical; settings: 200 pM CK1ε, 50 μM ATP, 1.5 μM peptide substrate, 22 hours room temperature
Chain of CK1ε (P49674 whole entry): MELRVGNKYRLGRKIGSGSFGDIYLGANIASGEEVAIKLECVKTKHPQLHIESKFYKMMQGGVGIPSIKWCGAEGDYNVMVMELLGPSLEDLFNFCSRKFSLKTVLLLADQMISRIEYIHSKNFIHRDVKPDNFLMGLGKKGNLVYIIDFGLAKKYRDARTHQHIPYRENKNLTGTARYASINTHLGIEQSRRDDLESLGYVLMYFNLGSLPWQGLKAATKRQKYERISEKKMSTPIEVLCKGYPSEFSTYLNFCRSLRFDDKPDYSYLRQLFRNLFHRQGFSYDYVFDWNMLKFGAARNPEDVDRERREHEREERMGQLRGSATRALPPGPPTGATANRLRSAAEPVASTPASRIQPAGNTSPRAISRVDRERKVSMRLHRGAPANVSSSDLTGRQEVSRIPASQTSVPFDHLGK
Description: as §1, §2

Chain of CK1δ (P48730 whole entry): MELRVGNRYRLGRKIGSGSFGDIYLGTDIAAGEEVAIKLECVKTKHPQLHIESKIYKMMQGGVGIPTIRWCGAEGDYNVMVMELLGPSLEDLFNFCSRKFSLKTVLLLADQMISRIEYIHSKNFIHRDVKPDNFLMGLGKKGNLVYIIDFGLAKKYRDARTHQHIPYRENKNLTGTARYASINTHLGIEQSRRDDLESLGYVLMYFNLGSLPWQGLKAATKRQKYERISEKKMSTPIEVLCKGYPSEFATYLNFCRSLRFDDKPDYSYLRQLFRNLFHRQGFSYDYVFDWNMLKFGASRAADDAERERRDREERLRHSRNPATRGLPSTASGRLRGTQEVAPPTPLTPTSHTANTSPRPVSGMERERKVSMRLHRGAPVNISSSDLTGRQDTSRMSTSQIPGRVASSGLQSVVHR

Row | IC50 (CK1δ) | IC50 (CK1ε) | Molecule
1 | 0.74 nM | 3.7 nM | 2-fluoro-N-(6-(3-(4-fluorophenyl)-1- methyl-5-morpholino-1H-pyrazol-4-yl) imidazo[1,2-b]pyridazin-2-yl) isonicotinamide [Compound 144]
2 | 5.2 nM | 7.4 nM | Cn1cc(-c2ccc3nc(NC(=O)c4ccncc4)cn3n2)c(-c2ccc(F)cc2)n1 [Compound 1, N-(6-(3-(4-Fluorophenyl)-1-methyl-1H-pyrazol-4-yl)imidazo[1,2-b]pyridazin-2-yl)isonicotinamide]
3 | 1.3 nM | 19.2 nM | Cn1cc(-c2ccc3nc(NC(=O)c4cc(Cl)nc5ccccc45)cn3n2)c(-c2ccc(F)cc2)n1 [Compound 2, 2-chloro-N-(6-(3-(4-fluorophenyl)-1-methyl-1H-pyrazol-4-yl)imidazo[1,2-b]pyridazin-2-yl)quinoline-4-carboxamide]
4 | 3.7 nM | 13.7 nM | Cc1nc(-c2ccncc2)sc1C(=O)Nc1cn2nc(-c3cn(C)nc3-c3ccc(F)cc3)ccc2n1 [Compound 4, N-(6-(3-(4-fluorophenyl)-1-methyl-1H-pyrazol-4-yl)imidazo[1,2-b]pyridazin-2-yl)-4-methyl-2-(pyridin-4-yl)thiazol-5-carboxamide]
5 | 4.3 nM | 17.3 nM | Cc1nc(-c2ccccn2)sc1C(=O)Nc1cn2nc(-c3cn(C)nc3-c3ccc(F)cc3)ccc2n1 [Compound 6, N-(6-(3-(4-fluorophenyl)-1-methyl-1H-pyrazol-4-yl)imidazo[1,2-b]pyridazin-2-yl)-4-methyl-2-(pyridin-2-yl)thiazol-5-carboxamide]
6 | 8.3 nM | 34.1 nM | Cc1nc(-c2ccccc2)sc1C(=O)Nc1cn2nc(-c3cn(C)nc3-c3ccc(F)cc3)ccc2n1 [Compound 7, N-(6-(3-(4-fluorophenyl)-1-methyl-1H-pyrazol-4-yl)imidazo[1,2-b]pyridazin-2-yl)-4-methyl-2-phenylthiazol-5-carboxamide]
7 | 5.4 nM | 31.4 nM | Cn1cc(-c2ccc3nc(NC(=O)c4csc(-c5ccncc5)n4)cn3n2)c(-c2ccc(F)cc2)n1 [Compound 8, N-(6-(3-(4-fluorophenyl)-1-methyl-1H-pyrazol-4-yl)imidazo[1,2-b]pyridazin-2-yl)-2-(pyridin-4-yl)thiazole-4-carboxamide]
8 | 24.6 nM | 899 nM | Cn1cc(-c2ccc3nc(NC(=O)c4csc(-c5ccc(Cl)cc5)n4)cn3n2)c(-c2ccc(F)cc2)n1 [Compound 11, 2-(4-chlorophenyl)-N-(6-(3-(4-fluorophenyl)-1-methyl-1H-pyrazol-4-yl)imidazo[1,2-b]pyridazin-2-yl)thiazol-4-carboxamide]
9 | 7.3 nM | 28.8 nM | Cc1nocc1C(=O)Nc1cn2nc(-c3cn(C)nc3-c3ccc(F)cc3)ccc2n1 [Compound 12, N-(6-(3-(4-fluorophenyl)-1-methyl-1H-pyrazol-4-yl)imidazo[1,2-b]pyridazin-2-yl)-3-methylisoxazole-4-carboxamide]
10 | 2.6 nM | 22.9 nM | Cn1cc(-c2ccc3nc(NC(=O)c4csc(Br)n4)cn3n2)c(-c2ccc(F)cc2)n1 [Compound 13, 2-bromo-N-(6-(3-(4-fluorophenyl)-1-methyl-1H-pyrazol-4-yl)imidazo[1,2-b]pyridazin-2-yl)thiazole-4-carboxamide]
11 | 4.3 nM | 9.2 nM | Cn1cc(-c2ccc3nc(NC(=O)c4ccccc4F)cn3n2)c(-c2ccc(F)cc2)n1 [Compound 20, 2-fluoro-N-(6-(3-(4-fluorophenyl)-1-methyl-1H-pyrazol-4-yl)imidazo[1,2-b]pyridazin-2-yl)benzamide]
12 | 3.7 nM | 15.2 nM | Cn1cc(-c2ccc3nc(NC(=O)c4ccno4)cn3n2)c(-c2ccc(F)cc2)n1 [Compound 22, N-(6-(3-(4-fluorophenyl)-1-methyl-1H-pyrazol-4-yl)imidazo[1,2-b]pyridazin-2-yl)isoxazole-5-carboxamide]
13 | 2.6 nM | 8.6 nM | Cn1cc(-c2ccc3nc(NC(=O)c4cccc(F)c4)cn3n2)c(-c2ccc(F)cc2)n1 [Compound 23, 3-fluoro-N-(6-(3-(4-fluorophenyl)-1-methyl-1H-pyrazol-4-yl)imidazo[1,2-b]pyridazin-2-yl)benzamide]
14 | 6.3 nM | 16.2 nM | Cn1cc(-c2ccc3nc(NC(=O)c4ccc(Cl)cc4F)cn3n2)c(-c2ccc(F)cc2)n1 [Compound 24, 4-chloro-2-fluoro-N-(6-(3-(4-fluorophenyl)-1-methyl-1H-pyrazol-4-yl)imidazo[1,2-b]pyridazin-2-yl)benzamide]
15 | 7.4 nM | 14.5 nM | Cn1cc(-c2ccc3nc(NC(=O)c4ccnnc4)cn3n2)c(-c2ccc(F)cc2)n1 [Compound 25, N-(6-(3-(4-fluorophenyl)-1-methyl-1H-pyrazol-4-yl)imidazo[1,2-b]pyridazin-2-yl)pyridazine-4-carboxamide]
16 | 3.1 nM | 6.6 nM | Cn1cc(-c2ccc3nc(NC(=O)c4cncs4)cn3n2)c(-c2ccc(F)cc2)n1 [Compound 28, N-(6-(3-(4-fluorophenyl)-1-methyl-1H-pyrazol-4-yl)imidazo[1,2-b]pyridazin-2-yl) thiazole-5-carboxamide]
17 | 16 nM | 48.1 nM | Cn1cc(-c2ccc3nc(NC(=O)c4ncccn4)cn3n2)c(-c2ccc(F)cc2)n1 [Compound 29, N-(6-(3-(4-fluorophenyl)-1-methyl-1H-pyrazol-4-yl)imidazo[1,2-b]pyridazin-2-yl)pyrimidine-2-carboxamide]
18 | 5.8 nM | 7.9 nM | Cn1cc(-c2ccc3nc(NC(=O)c4ccc(CN5CCCC5)cc4)cn3n2)c(-c2ccc(F)cc2)n1 [Compound 30, N-(6-(3-(4-fluorophenyl)-1-methyl-1H-pyrazol-4-yl)imidazo[1,2-b]pyridazin-2-yl)-4-(pyrrolidin-1-ylmethyl)benzamide]
19 | 3.9 nM | 6.3 nM | CCN(CC)Cc1ccc(C(=O)Nc2cn3nc(-c4cn(C)nc4-c4ccc(F)cc4)ccc3n2)cc1 [Compound 31, 4-((diethylamino)methyl)-N-(6-(3-(4-fluorophenyl)-1-methyl-1H-pyrazol-4-yl)imidazo[1,2-b]pyridazin-2-yl)benzamide]
20 | 10.1 nM | 98.3 nM | Cn1cc(-c2ccc3nc(NC(=O)c4cc(C(C)(C)C)ncn4)cn3n2)c(-c2ccc(F)cc2)n1 [Compound 32, 6-(tert-butyl)-N-(6-(3-(4-fluorophenyl)-1-methyl-1H-pyrazol-4-yl)imidazo[1,2-b]pyridazin-2-yl)pyrimidine-4-carboxamide]
21 | – | 75.7 nM | COc1cc(C(=O)Nc2cn3nc(-c4cn(C)nc4-c4ccc(F)cc4)ccc3n2)nc(OC)n1 [Compound 39, N-(6-(3-(4-fluorophenyl)-1-methyl-1H-pyrazol-4-yl)imidazo[1,2-b]pyridazin-2-yl)-2,6-dimethoxypyrimidine-4-carboxamide]
22 | 4.1 nM | – | Cn1cc(-c2ccc3nc(NC(=O)c4cncc(Cl)c4)cn3n2)c(-c2ccc(F)cc2)n1 [Compound 46, 5-chloro-N-(6-(3-(4-fluorophenyl)-1-methyl-1H-pyrazol-4-yl)imidazo[1,2-b]pyridazin-2-yl)nicotinamide]
23 | – | 99.9 nM | Cn1cc(-c2ccc3nc(NC(=O)c4ccnc(C(C)(C)C)c4)cn3n2)c(-c2ccc(F)cc2)n1 [Compound 50, 2-(tert-butyl)-N-(6-(3-(4-fluorophenyl)-1-methyl-1H-pyrazol-4-yl)imidazo[1,2-b]pyridazin-2-yl)isonicotinamide]
24 | 10.6 nM | – | COc1ncccc1C(=O)Nc1cn2nc(-c3cn(C)nc3-c3ccc(F)cc3)ccc2n1 [Compound 77, N-(6-(3-(4-fluorophenyl)-1-methyl-1H-pyrazol-4-yl)imidazo[1,2-b]pyridazin-2-yl)-2-methoxynicotinamide]
25 | – | 11.3 nM | Cn1cc(-c2ccc3nc(NC(=O)C4CCCCC4)cn3n2)c(-c2ccc(F)cc2)n1 [Compound 87, N-(6-(3-(4-fluorophenyl)-1-methyl-1H-pyrazol-4-yl)imidazo[1,2-b]pyridazin-2-yl)cyclohexanecarboxamide]
26 | – | 135 nM | CN1CCC(C(=O)Nc2cn3nc(-c4cn(C)nc4-c4ccc(F)cc4)ccc3n2)CC1 [Compound 90, N-(6-(3-(4-fluorophenyl)-1-methyl-1H-pyrazol-4-yl)imidazo[1,2-b]pyridazin-2-yl)-1-methylpiepridine-4-carboxamide]
27 | 2.6 nM | – | Cn1cc(C(=O)Nc2cn3nc(-c4cn(C)nc4-c4ccc(F)cc4)ccc3n2)cn1 [Compound 98, N-(6-(3-(4-fluorophenyl)-1-methyl-1H-pyrazol-4-yl)imidazo[1,2-b]pyridazin-2-yl)-1-methyl-1H-pyrazole-4-carboxamide]
28 | 0.5 nM | – | Cn1nc(-c2ccc(F)cc2)c(-c2ccc3nc(NC(=O)c4ccnc(F)c4)cn3n2)c1N1CCN(C(=O)C2CC2)CC1 [Compound 122, N-(6-(5-(4-(Cyclopropanecarbonyl)piperazin-1-yl)-3-(4-fluorophenyl)-1-methyl-1H-pyrazol-4-yl)imidazo[1,2-b]pyridazin-2-yl)-2-fluoroisonicotinamide]
29 | 3.6 nM | – | Cn1nc(-c2ccc(F)cc2)c(-c2ccc3nc(NC(=O)c4ccncc4)cn3n2)c1C1CCN(Cc2cscn2)CC1 [Compound 171, N-(6-(3-(4-fluorophenyl)-1-methyl-5-(1-(thiazol-4-ylmethyl)piperidin-4-yl)-1H-pyrazol-4-yl)imidazo[1,2-b]pyridazin-2-yl) isonicotinamide]

Row | Molecule | IC50 (CK1δ) | IC50 (CK1ε)
30 | Cn1nc(-c2ccc(F)cc2)c(-c2ccc3nc(NC(=O)c4ccnc(F)c4)cn3n2)c1N1CCOCC1 [Compound 143, 2-Fluoro-N-(6-(3-(4-fluorophenyl)-1-methyl-5-morpholino-1H-pyrazol-4-yl)imidazo[1,2-b]pyridazin-2-yl)isonicotinamide] | 2 nM | –
